# What was measured:
# [1] = tested on: TRZAWR (Wheat, Winter, cv Riband); assay: Preemergence herbicidal evaluation; format: in vivo, Triticum aestivum; details: Rate 0.0620 kg/ha; rated 4-5 weeks after treatment
# From the text: (§1) Results of herbicide evaluation are expressed on a rating scale (0-9). The scale is based upon a visual observation of plant stand, vigor, malformation, size, chlorosis and overall plant appearance as compared with a control.
# (§2) The preemergence herbicidal activity of the test compounds of the present invention is exemplified by the following tests in which the seeds of a variety of monocotyledonous and dicotyledonous plants are separately mixed with potting soil and planted on top of approximately one inch of soil in separate pint cups. […] The treated cups are then placed on greenhouse benches, watered and cared for in accordance with conventional greenhouse procedures. From four to five weeks after treatment, the tests are terminated and each cup is examined and rated according to the rating system provided in Example 87. The plant species used and the compounds evaluated are the same as those shown in Example 87.
# [2] = tested on: ECHCG (Echinochloa crus-galli); assay: Postemergence herbicidal evaluation; format: in vivo, (L.) Beau; details: postemergence
# Protocol: (§3) In the tests, seedling plants are grown in jiffy flats for about two weeks. […] After spraying, the plants are placed on greenhouse benches and are cared for in accordance with conventional greenhouse procedures. From four to five weeks after treatment, the seedling plants are examined and rated according to the rating system set forth below. Where more than one test is involved for a given compound, the data are averaged.
# as §1
# [3] = tested on: GALAP (Galium aparine); assay: Postemergence herbicidal evaluation; format: in vivo; details: postemergence
# Protocol: as §3, §1
# [4] = tested on: GLXMAW (Soybean, Williams); assay: Postemergence herbicidal evaluation; format: in vivo, Glycine max, (L.) Merr. cv Williams; details: postemergence
# Protocol: as §3, §1
# [5] = tested on: ABUTH (Abutilon theophrasti); assay: Postemergence herbicidal evaluation; format: in vivo, Medic.; details: postemergence
# Protocol: as §3, §1
# [6] = tested on: AMBEL (Ambrosia artemisifolia); assay: Postemergence herbicidal evaluation; format: in vivo, L.; details: postemergence
# Protocol: as §3, §1
# [7] = tested on: CASOB (Cassia obtusifolia); assay: Postemergence herbicidal evaluation; format: in vivo, L.; details: postemergence
# Protocol: as §3, §1
# [8] = tested on: CHEAL (Chenopodium album); assay: Postemergence herbicidal evaluation; format: in vivo, L.; details: postemergence
# Protocol: as §3, §1
# [9] = tested on: TRZAWR (Wheat, Winter, cv Riband); assay: Postemergence herbicidal evaluation; format: in vivo, Triticum aestivum; details: postemergence
# Protocol: as §3, §1
# [10] = tested on: ZEAMX (Corn, Field); assay: Postemergence herbicidal evaluation; format: in vivo, Zea mays, L.; details: postemergence
# Protocol: as §3, §1
# [11] = tested on: ORYSAT (Rice, Tebonnet); assay: Postemergence herbicidal evaluation; format: in vivo, Oryza sativa, (L.) Tebonnet; details: postemergence
# Protocol: as §3, §1
# [12] = tested on: CYPIR (Cyperus iria); assay: Flooded paddy, preemergence weed control; format: in vivo; details: rated 3-4 weeks after treatment, 0-9 rating scale
# Protocol: as §1
# (§4) Preemergence herbicidal activity under flooded paddy conditions is determined as follows: plant seeds or propagating organs are planted in the top 0.5 cm of silt loam soil in 32 oz. plastic containers with a diameter of 10.5 cm and no drainage holes. Water is added to these containers and maintained at 1.5 to 3 cm above the soil surface for the duration of the experiment. […] The treated containers are placed on greenhouse benches and cared for in accordance with conventional greenhouse procedures.
# [13] = tested on: GLXMAW (Soybean, Williams); assay: Preemergence herbicidal evaluation; format: in vivo, Glycine max, (L.) Merr. cv Williams; details: Rate 0.0620 kg/ha; rated 4-5 weeks after treatment
# From the text: as §1, §2
# [14] = tested on: ECHORC (Echinochloa oryzoides); assay: Flooded paddy, preemergence weed control; format: in vivo, Echinochloa oryzoides (Ard.) Fritsch.; details: rated 3-4 weeks after treatment, 0-9 rating scale
# Protocol: as §1, §4
# [15] = tested on: MOOVA (Monochoria vaginalis); assay: Flooded paddy, preemergence weed control; format: in vivo, Presl.; details: rated 3-4 weeks after treatment, 0-9 rating scale
# Protocol: as §1, §4
# [16] = tested on: ZEAMX (Corn, Field); assay: Preemergence herbicidal evaluation; format: in vivo, Zea mays, L.; details: Rate 0.0620 kg/ha; rated 4-5 weeks after treatment
# From the text: as §1, §2
# [17] = tested on: SAGPY (Sagittaria pygmaea); assay: Flooded paddy, preemergence weed control; format: in vivo, L.; details: rated 3-4 weeks after treatment, 0-9 rating scale
# Protocol: as §1, §4
# [18] = tested on: AMBEL (Ambrosia artemisifolia); assay: Preemergence herbicidal evaluation; format: in vivo, L.; details: Rate 0.0620 kg/ha; rated 4-5 weeks after treatment
# From the text: as §1, §2
# [19] = tested on: CASOB (Cassia obtusifolia); assay: Preemergence herbicidal evaluation; format: in vivo, L.; details: Rate 0.0620 kg/ha; rated 4-5 weeks after treatment
# From the text: as §1, §2
# [20] = tested on: CHEAL (Chenopodium album); assay: Preemergence herbicidal evaluation; format: in vivo, L.; details: Rate 0.0620 kg/ha; rated 4-5 weeks after treatment
# From the text: as §1, §2
# [21] = tested on: ECHCG (Echinochloa crus-galli); assay: Preemergence herbicidal evaluation; format: in vivo, (L.) Beau; details: Rate 0.0620 kg/ha; rated 4-5 weeks after treatment
# From the text: as §1, §2
# [22] = tested on: SETVI (Setaria viridis); assay: Preemergence herbicidal evaluation; format: in vivo, (L.) Beau; details: Rate 0.0620 kg/ha; rated 4-5 weeks after treatment
# From the text: as §1, §2
# [23] = tested on: IPOHE (Ipomoea hederacea); assay: Postemergence herbicidal evaluation; format: in vivo, (L.) Jacq.; details: postemergence
# Protocol: as §3, §1
# [24] = tested on: IPOHE (Ipomoea hederacea); assay: Preemergence herbicidal evaluation; format: in vivo, (L.) Jacq.; details: Rate 0.0620 kg/ha; rated 4-5 weeks after treatment
# From the text: as §1, §2
# [25] = tested on: SETVI (Setaria viridis); assay: Postemergence herbicidal evaluation; format: in vivo, (L.) Beau; details: postemergence
# Protocol: In the tests, seedling plants are grown in jiffy flats for about two weeks. The test compounds are dispersed in 50/50 acetone/water mixtures containing 0.5% TWEEN® 20, a polyoxyethylene sorbitan monolaurate surfactant of Atlas Chemical Industries, in sufficient quantities to provide the equivalent of about 0.0040 kg to 1.000 kg per hectare of active compound when applied to the plants through a spray nozzle operating at 40 psi for a predetermined time. After spraying, the plants are placed on greenhouse benches and are cared for in accordance with conventional greenhouse procedures. From four to five weeks after treatment, the seedling plants are examined and rated according to the rating system set forth below. Where more than one test is involved for a given compound, the data are averaged.
# as §1
# [26] = tested on: ORYSAT (Rice, Tebonnet); assay: Preemergence herbicidal evaluation; format: in vivo, Oryza sativa, (L.) Tebonnet; details: Rate 0.0620 kg/ha; rated 4-5 weeks after treatment
# From the text: as §1, §2
# [27] = tested on: ABUTH (Abutilon theophrasti); assay: Preemergence herbicidal evaluation; format: in vivo, Medic.; details: Rate 0.0620 kg/ha; rated 4-5 weeks after treatment
# From the text: as §1, §2
# [28] = tested on: GALAP (Galium aparine); assay: Preemergence herbicidal evaluation; format: in vivo; details: Rate 0.0620 kg/ha; rated 4-5 weeks after treatment
# From the text: as §1, §2
compound,measurement,setting,value
"C[C@@H]1OC(c2nsc3cc(F)c(-n4c(=O)cc(C(F)(F)F)n(C)c4=O)cc23)O[C@@H]1C (stereo partly drawn) [Compound 66, 3-[3-[(4R,5S-)-4,5-dimethyl-1,3-dioxolan-2-yl]-6-fluoro-1,2-benzisothiazol-5-yl]-1-methyl-6-(trifluoromethyl)uracil]",Preemergence herbicidal rating TRZAWR,[1],8.0
same,ECHCG herbicidal rating,[2]; rate 0.0320 kg/ha,2.0
same,ECHCG herbicidal rating,[2]; rate 0.0620 kg/ha,5.0
same,GALAP herbicidal rating,[3]; rate 0.0320 kg/ha,9.0
same,GALAP herbicidal rating,[3]; rate 0.0620 kg/ha,9.0
same,GLXMAW herbicidal rating,[4]; rate 0.0320 kg/ha,9.0
same,GLXMAW herbicidal rating,[4]; rate 0.0620 kg/ha,9.0
same,ABUTH herbicidal rating,[5]; rate 0.0320 kg/ha,9.0
same,ABUTH herbicidal rating,[5]; rate 0.0620 kg/ha,9.0
same,AMBEL herbicidal rating,[6]; rate 0.0320 kg/ha,9.0
same,AMBEL herbicidal rating,[6]; rate 0.0620 kg/ha,9.0
same,CASOB herbicidal rating,[7]; rate 0.0320 kg/ha,8.0
same,CASOB herbicidal rating,[7]; rate 0.0620 kg/ha,9.0
same,CHEAL herbicidal rating,[8]; rate 0.0320 kg/ha,9.0
same,CHEAL herbicidal rating,[8]; rate 0.0620 kg/ha,9.0
same,TRZAWR herbicidal rating,[9]; rate 0.0320 kg/ha,4.0
same,TRZAWR herbicidal rating,[9]; rate 0.0620 kg/ha,4.0
same,ZEAMX herbicidal rating,[10]; rate 0.0320 kg/ha,5.5
same,ZEAMX herbicidal rating,[10]; rate 0.0620 kg/ha,5.5
same,ORYSAT herbicidal rating,[11]; rate 0.0320 kg/ha,4.5
same,ORYSAT herbicidal rating,[11]; rate 0.0620 kg/ha,4.5
same,"herbicidal rating, CYPIR",[12]; rate 0.0080 kg/ha,2.5
same,"herbicidal rating, CYPIR",[12]; rate 0.0320 kg/ha,6.0
same,"herbicidal rating, CYPIR",[12]; rate 0.1250 kg/ha,9.0
same,Preemergence herbicidal rating GLXMAW,[13],9.0
same,"herbicidal rating, ECHORC",[14]; rate 0.0080 kg/ha,4.5
same,"herbicidal rating, ECHORC",[14]; rate 0.0320 kg/ha,9.0
same,"herbicidal rating, ECHORC",[14]; rate 0.1250 kg/ha,9.0
same,"herbicidal rating, MOOVA",[15]; rate 0.0080 kg/ha,0.0
same,"herbicidal rating, MOOVA",[15]; rate 0.0320 kg/ha,9.0
same,"herbicidal rating, MOOVA",[15]; rate 0.1250 kg/ha,9.0
same,Preemergence herbicidal rating ZEAMX,[16],8.0
same,"herbicidal rating, SAGPY",[17]; rate 0.0080 kg/ha,2.5
same,"herbicidal rating, SAGPY",[17]; rate 0.0320 kg/ha,9.0
same,"herbicidal rating, SAGPY",[17]; rate 0.1250 kg/ha,9.0
same,Preemergence herbicidal rating AMBEL,[18],9.0
same,Preemergence herbicidal rating CASOB,[19],6.0
same,Preemergence herbicidal rating CHEAL,[20],9.0
same,Preemergence herbicidal rating ECHCG,[21],9.0
same,Preemergence herbicidal rating SETVI,[22],9.0
same,IPOHE herbicidal rating,[23]; rate 0.0320 kg/ha,9.0
same,IPOHE herbicidal rating,[23]; rate 0.0620 kg/ha,9.0
same,Preemergence herbicidal rating IPOHE,[24],7.5
same,SETVI herbicidal rating,[25]; rate 0.0320 kg/ha,8.0
same,SETVI herbicidal rating,[25]; rate 0.0620 kg/ha,9.0
same,Preemergence herbicidal rating ORYSAT,[26],8.5
same,Preemergence herbicidal rating ABUTH,[27],9.0
same,Preemergence herbicidal rating GALAP,[28],7.0

# — US6706663B2, “Herbicidal 3-heterocyclic substituted benzisothiazole and benzisoxazole compounds” (Wyeth, priority 2000, dated 2004)
